Each compound was assayed on σ1 receptor and the μ-opiod receptor (assay: μ and σ1 dual binding: combined class from the Ki of both radioligand assays). Conditions: combined class for Ki-μ and Ki-σ1; transfected HEK-293 membranes (σ1), transfected CHO-K1 cell membranes (μ).
Set-up: species or system human; key to μ and σ1 dual binding: +: Both Ki-μ and Ki-σ1>=500 nM; ++: One Ki<500 nM while the other Ki is >=500 nM; +++: Both Ki-μ and Ki-σ1<500 nM; ++++: Both Ki-μ and Ki-σ1<100 nM
In short: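 Classes combine both Ki values, split at 500 nM and 100 nM. Human μ-opioid binding used 1 nM [3H]-DAMGO on CHO-K1 membranes (27 °C, 60 min, pH 7.4, naloxone 10 μM for NSB); human σ1 used 5 nM [3H](+)-pentazocine on HEK-293 membranes (37 °C, 120 min, pH 8, haloperidol 10 μM for NSB).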

SMILES | μ and σ1 dual binding
CS(=O)(=O)Nc1cccc(C2CCN(Cc3cn(-c4ccccc4)nn3)CC2)n1 [Example 191, N-(6-(1-((1-phenyl-1H-1,2,3-triazol-4-yl)methyl)piperidin-4-yl)pyridin-2-yl)methanesulfonamide] | ++
CC(C)S(=O)(=O)Nc1cccc([C@@H]2CCN(Cc3cnn(-c4ccccn4)c3)C[C@@H]2O)c1 [Example 169, N-(3-((3R,4S)-3-hydroxy-1-((1-(pyridin-2-yl)-1H-pyrazol-4-yl)methyl)piperidin-4-yl)phenyl)propane-2-sulfonamide] | ++
COc1cccnc1Cn1cc(CN2CCC(c3cccc(O)c3)CC2)nn1 [Example 158, 3-(1-((1-((3-methoxypyridin-2-yl)methyl)-1H-1,2,3-triazol-4-yl)methyl)piperidin-4-yl)phenol] | ++
CS(=O)(=O)Nc1cccc(C2CCN(Cc3cn(C(CO)c4ccccc4)nn3)CC2)c1 (centres unmarked) [Example 131, N-(3-(1-((1-(2-hydroxy-1-phenylethyl)-1H-1,2,3-triazol-4-yl)methyl)piperidin-4-yl)phenyl)methanesulfonamide] | ++
Cc1cccc(Cn2cc(CN3CCC(c4cccc(NS(=O)(=O)C(C)C)c4)CC3)nn2)n1 [Example 118, N-(3-(1-((1-((6-methylpyridin-2-yl)methyl)-1H-1,2,3-triazol-4-yl)methyl)piperidin-4-yl)phenyl)propane-2-sulfonamide] | ++
Oc1ncccc1C1CCN(Cc2cn(-c3ccccc3)nn2)CC1 [Example 205, 3-(1-((1-phenyl-1H-1,2,3-triazol-4-yl)methyl)piperidin-4-yl)pyridin-2-ol] | ++
CC(C)S(=O)(=O)Nc1cccc([C@H]2CCN(Cc3cn(-c4ccccc4)nn3)C[C@H]2O)c1 (racemic) [Example 127, N-(3-((3S,4R)-3-hydroxy-1-((1-phenyl-1H-1,2,3-triazol-4-yl)methyl)piperidin-4-yl)phenyl)propane-2-sulfonamide] | ++
COc1cccnc1-n1cc(CN2CCC(c3cccc(O)c3)CC2)nn1 [Example 219, 3-(1-((1-(3-methoxypyridin-2-yl)-1H-1,2,3-triazol-4-yl)methyl)piperidin-4-yl)phenol] | ++
CS(=O)(=O)Nc1ccc(C(F)(F)F)c(C2CCN(Cc3cn(-c4ccccc4)nn3)CC2)c1 [Example 20, N-(3-(1-((1-phenyl-1H-1,2,3-triazol-4-yl)methyl)piperidin-4-yl)-4-(trifluoromethyl)phenyl)methanesulfonamide] | ++
CN(c1cccc(C2CCN(Cc3cn(-c4ccccc4)nn3)CC2)c1)S(C)(=O)=O [Example 31, N-methyl-N-(3-(1-((1-phenyl-1H-1,2,3-triazol-4-yl)methyl)piperidin-4-yl)phenyl)methanesulfonamide] | ++
CC(C)S(=O)(=O)Nc1cccc(C2CCN(Cc3cn(Cc4cc(N=[N+]=[N-])ccn4)nn3)CC2)c1 [Example 128] | ++
CC(C)S(=O)(=O)Nc1cccc(C2CCN(Cc3cn(Cc4ccc(F)cn4)nn3)CC2)c1 [Example 135, N-(3-(1-((1-((5-fluoropyridin-2-yl)methyl)-1H-1,2,3-triazol-4-yl)methyl)piperidin-4-yl)phenyl)propane-2-sulfonamide] | ++
CNS(=O)(=O)c1cccc(C2CCN(Cc3cn(-c4ccccc4)nn3)CC2)c1 [Example 17, N-methyl-3-(1-((1-phenyl-1H-1,2,3-triazol-4-yl)methyl)piperidin-4-yl)benzenesulfonamide] | ++
CC(C)S(=O)(=O)Nc1cccc(C2CCN(Cc3cn(Cc4ccc(Cl)cn4)nn3)CC2)n1 [Example 213, N-(6-(1-((1-((5-chloropyridin-2-yl)methyl)-1H-1,2,3-triazol-4-yl)methyl)piperidin-4-yl)pyridin-2-yl)propane-2-sulfonamide] | ++

Same assay, conditions: transfected HEK-293 membranes (σ1), transfected CHO-K1 cell membranes (μ)

SMILES | Ki range for both μ and σ1 (dual-binding class) [nM]
Oc1cccc(C2CCN(Cc3cnn(Cc4ccc(F)cn4)c3)CC2)c1 [Example 173, 3-(1-((1-((5-fluoropyridin-2-yl)methyl)-1H-pyrazol-4-yl)methyl)piperidin-4-yl)phenol] | < 500
CCC(=O)Nc1cncc(C2CCN(Cc3cn(-c4ccccc4)nn3)CC2)c1 [Example 195, N-(5-(1-((1-phenyl-1H-1,2,3-triazol-4-yl)methyl)piperidin-4-yl)pyridin-3-yl)propionamide] | ≥ 500
c1ccc(-n2cc(CN3CCC(c4cccc(Nc5nccs5)c4)CC3)nn2)cc1 [Example 225, N-(3-(1-((1-phenyl-1H-1,2,3-triazo1-4-yl)methyl)piperidin-4-yl)phenyl)thiazol-2-amine] | < 100
Oc1cccc(C2CCN(Cc3cn(Cc4ccc(Cl)cn4)nn3)CC2)c1 [Example 153, 3-(1-((1-((5-chloropyridin-2-yl)methyl)-1H-1,2,3-triazol-4-yl)methyl)piperidin-4-yl)phenol] | < 100
Oc1cccc(C2CCN(Cc3cn([C@@H]4c5ccccc5C[C@@H]4O)nn3)CC2)c1 [Example 88, (1R,2S)-1-(4-((4-(3-hydroxyphenyl)piperidin-1-yl)methyl)-1H-1,2,3-triazol-1-yl)-2,3-dihydro-1H-inden-2-ol] | < 500
CC(C)S(=O)(=O)Nc1cccc(C2CCN(Cc3cn(Cc4cccc(F)n4)nn3)CC2)c1 [Example 116, N-(3-(1-((1-((6-fluoropyridin-2-yl)methyl)-1H-1,2,3-triazol-4-yl)methyl)piperidin-4-yl)phenyl)propane-2-sulfonamide] | < 500
CCC(=O)Nc1cccc(C2CCN(Cc3cn(-c4ccccc4)nn3)CC2)n1 [Example 190, N-(6-(1-((1-phenyl-1H-1,2,3-triazol-4-yl)methyl)piperidin-4-yl)pyridin-2-yl)propionamide] | < 500
Nc1nc2c(C3CCN(Cc4cn(-c5ccccc5)nn4)CC3)cccc2s1 [Example 50, 4-(1-((1-phenyl-1H-1,2,3-triazol-4-yl)methyl)piperidin-4-yl)benzo[d]thiazol-2-amine] | < 100
NS(=O)(=O)c1cccc(C2CCN(Cc3cn(-c4ccccc4)nn3)CC2)c1 [Example 140, 3-(1-((1-phenyl-1H-1,2,3-triazol-4-yl)methyl)piperidin-4-yl)benzenesulfonamide] | ≥ 500
OCC(c1ccccc1)n1cc(CN2CCC(c3cccc(O)c3)CC2)nn1 (centres unmarked) [Example 67, 3-(1-((1-(2-hydroxy-1-phenylethyl)-1H-1,2,3-triazol-4-yl)methyl)piperidin-4-yl)phenol] | < 500
CS(=O)(=O)Nc1cccc(C2CCN(Cc3cc(-c4ccccc4)no3)CC2)c1 [Example 174, N-(3-(1-((3-phenylisoxazol-5-yl)methyl)piperidin-4-yl)phenyl)methanesulfonamide] | < 100
NS(=O)(=O)c1cccc(C2CCN(Cc3cn(Cc4ccccn4)nn3)CC2)c1 [Example 141, 3-(1-((1-(pyridin-2-ylmethyl)-1H-1,2,3-triazol-4-yl)methyl)piperidin-4-yl)benzenesulfonamide] | ≥ 500
CS(=O)(=O)Nc1cccc(C2CCN(Cc3cn(-c4ccccc4F)nn3)CC2)c1 [Example 27, N-(3-(1-((1-(2-fluorophenyl)-1H-1,2,3-triazol-4-yl)methyl)piperidin-4-yl)phenyl)methanesulfonamide] | < 100
Oc1cccc(C2CCN(Cc3cn(Cc4ccc(F)cn4)cn3)CC2)c1 [Example 215, 3-(1-((1-((5-fluoropyridin-2-yl)methyl)-1H-imidazol-4-yl)methyl)piperidin-4-yl)phenol] | < 500
Fc1ccc(Nc2cccc(C3CCN(Cc4cn(Cc5ccccn5)nn4)CC3)c2)nc1 [Example 232, 5-fluoro-N-(3-(1-((1-(pyridin-2-ylmethyl)-1H-1,2,3-triazol-4-yl)methyl)piperidin-4-yl)phenyl)pyridin-2-amine] | < 500
COc1ccc(-n2cc(CN3CCC(c4cccc(O)c4)CC3)nn2)nc1 [Example 217, 3-(1-((1-(5-methoxypyridin-2-yl)-1H-1,2,3-triazol-4-yl)methyl)piperidin-4-yl)phenol] | < 500
Oc1cccc(C2CCN(Cc3cn(Cc4ccc(C(F)(F)F)cn4)nn3)CC2)c1 [Example 152] | < 100
Oc1cccc(C2CCN(Cc3cn(Cc4ncccc4F)nn3)CC2)c1 [Example 134, 3-(1-((1-((3-fluoropyridin-2-yl)methyl)-1H-1,2,3-triazol-4-yl)methyl)piperidin-4-yl)phenol] | < 500
NC(=O)c1cccc(C2CCN(Cc3cn(-c4ccccc4)nn3)CC2)c1 [Example 6, 3-(1-((1-phenyl-1H-1,2,3-triazol-4-yl)methyl)piperidin-4-yl)benzamide] | < 500
CS(=O)(=O)Nc1cccc(C2CCN(Cc3cn(C4CCc5ccccc54)nn3)CC2)c1 (centres unmarked) [Example 48, N-(3-(1-((1-(2,3-dihydro-1H-inden-1-yl)-1H-1,2,3-triazol-4-yl)methyl)piperidin-4-yl)phenyl)methanesulfonamide] | < 500
CS(=O)(=O)Nc1cccc(C2CCN(Cc3cn(-c4ccccc4)nn3)CC2)c1 [Example 62, N-(3-(1-((1-phenyl-1H-1,2,3-triazol-4-yl)methyl)piperidin-4-yl)phenyl)methanesulfonamide] | < 100

— patent US9981942B2, “Piperidine derivatives having multimodal activity against pain” (LABORATORIOS DEL DR. ESTEVE S.A., priority 2013, dated 2018)
